The results in this text go back to ChEMBL document CHEMBL1145182, “Molecular dynamics simulations of the TEM-1 beta-lactamase complexed with cephalothin” (J Med Chem, 2005).

This assay concerns the target Beta-lactamase TEM (Escherichia coli) (UniProt P62593). The assay can be described thus: Rate of catalysis against TEM-1 beta-lactamase.

Chain of Beta-lactamase TEM (Escherichia coli) (P62593 whole entry): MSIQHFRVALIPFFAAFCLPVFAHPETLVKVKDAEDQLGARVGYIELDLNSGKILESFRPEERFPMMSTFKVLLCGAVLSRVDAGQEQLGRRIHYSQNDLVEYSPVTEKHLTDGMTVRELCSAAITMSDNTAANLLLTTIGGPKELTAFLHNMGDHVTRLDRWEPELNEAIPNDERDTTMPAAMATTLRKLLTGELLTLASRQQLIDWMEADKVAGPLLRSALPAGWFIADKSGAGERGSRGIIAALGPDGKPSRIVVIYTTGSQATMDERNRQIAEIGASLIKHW

In the case of `CC(=O)OCC1=C(C(=O)O)N2C(=O)[C@@H](NC(=O)Cc3cccs3)[C@H]2SC1`, the K cat is 115 1/S.
Then `CC1(C)S[C@@H]2[C@H](NC(=O)Cc3ccccc3)C(=O)N2[C@H]1C(=O)O`, with 1280 1/S.
